Series [1] has as its target SRPK1 (Homo sapiens (Human), UniProt Q96SB4). The series is described as follows: SRPK1 inhibitory activity. The class given is biochemical.
Series [2] concerns EML4-ALK wt transformed Ba/F3 cells. The series is described as follows: Ba/F3 single point inhibition assay (MTS). The class given is cell-based. The following applies: single dose 1 μM, 72 hours.
Description: (§1) The MTS assay is a colorimetric method for determining the number of viable cells that is based on the bioreduction of MTS by cells to a formazan product that is soluble in cell culture medium and can be detected spectrophotometrically. […] All experimental points were set up in six wells and all experiments were repeated at least three times. […] The curves were fitted using a non-linear regression model with a sigmoidal dose response.
Series [3] addresses SRPK2 (Homo sapiens (Human), UniProt P78362). The series is described as follows: SRPK2 inhibitory activity. The class given is biochemical.
Series [4] relates to EML4-ALK^G1202R transformed Ba/F3 cells. Briefly: Ba/F3 single point inhibition assay (MTS). The class given is cell-based. To be noted: single dose 1 μM, 72 hours.
Description: as §1

Here are results for 20 compounds from patent US11066363B2, “Substituted 6,11-dihydro-5H-benzo[B]carbazoles as inhibitors of ALK and SRPK” (Dana-Farber Cancer Institute, Inc., priority 2015, dated 2021).

SRPK1, sequence (Q96SB4 whole entry): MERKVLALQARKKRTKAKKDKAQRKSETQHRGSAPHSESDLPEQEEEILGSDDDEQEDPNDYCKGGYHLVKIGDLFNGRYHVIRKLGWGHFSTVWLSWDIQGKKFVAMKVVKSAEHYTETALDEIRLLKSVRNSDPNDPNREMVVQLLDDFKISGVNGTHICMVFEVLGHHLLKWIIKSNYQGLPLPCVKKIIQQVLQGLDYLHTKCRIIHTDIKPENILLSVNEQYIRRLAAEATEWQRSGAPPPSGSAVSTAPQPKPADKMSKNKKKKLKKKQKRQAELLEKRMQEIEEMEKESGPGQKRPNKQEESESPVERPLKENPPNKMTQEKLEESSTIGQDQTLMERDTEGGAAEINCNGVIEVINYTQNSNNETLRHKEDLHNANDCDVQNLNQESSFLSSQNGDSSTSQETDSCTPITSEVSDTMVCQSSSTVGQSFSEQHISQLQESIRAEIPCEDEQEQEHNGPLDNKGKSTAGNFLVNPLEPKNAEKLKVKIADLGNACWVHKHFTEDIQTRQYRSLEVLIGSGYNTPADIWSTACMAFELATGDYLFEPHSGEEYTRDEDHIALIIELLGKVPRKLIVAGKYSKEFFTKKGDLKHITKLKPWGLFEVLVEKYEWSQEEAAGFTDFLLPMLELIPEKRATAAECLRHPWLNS
SRPK2, sequence (P78362 whole entry, species assumed): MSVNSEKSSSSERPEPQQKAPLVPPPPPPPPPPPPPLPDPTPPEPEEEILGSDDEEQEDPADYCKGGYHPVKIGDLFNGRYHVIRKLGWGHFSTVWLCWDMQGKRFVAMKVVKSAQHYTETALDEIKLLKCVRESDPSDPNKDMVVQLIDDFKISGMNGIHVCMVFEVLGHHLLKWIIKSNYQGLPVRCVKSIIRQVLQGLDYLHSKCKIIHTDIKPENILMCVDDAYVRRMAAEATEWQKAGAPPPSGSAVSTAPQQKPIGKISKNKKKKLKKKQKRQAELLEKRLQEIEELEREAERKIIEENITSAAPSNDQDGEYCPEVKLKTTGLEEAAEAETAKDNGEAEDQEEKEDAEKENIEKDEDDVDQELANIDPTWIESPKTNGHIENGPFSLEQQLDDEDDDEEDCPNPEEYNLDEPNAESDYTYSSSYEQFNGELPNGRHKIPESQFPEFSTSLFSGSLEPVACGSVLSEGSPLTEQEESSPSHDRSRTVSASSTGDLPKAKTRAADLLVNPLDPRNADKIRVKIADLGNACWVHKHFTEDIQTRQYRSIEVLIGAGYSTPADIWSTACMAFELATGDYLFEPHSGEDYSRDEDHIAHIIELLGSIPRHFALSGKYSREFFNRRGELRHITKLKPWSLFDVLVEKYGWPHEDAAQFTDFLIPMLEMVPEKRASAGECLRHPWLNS

Regarding `CCc1cc2c(cc1-c1cnn(C)c1)C(C)(C)c1[nH]c3cc(C#N)ccc3c1C2=O` [Compound 7, 9-ethyl-6,6-dimethyl-8-(1-methyl-1H-pyrazol-4-yl)-11-oxo-6,11-dihydro-5H-benzo[b]carbazole-3-carbonitrile], the IC50 is 3.01 nM in series [1] and 12.4 nM in series [3]. Besides, the “Percent viability of untreated control, wt” value (from here on “Percent viability … wt”) in series [2] was determined as 1%. Further, the “Percent viability of untreated control, G1202R” value (“Percent viability … G1202R” below) in series [4] is listed as 1%.
For `CCc1cc2c(cc1-c1cn[nH]c1)C(C)(C)c1[nH]c3cc(C#N)ccc3c1C2=O` [Compound 8, 9-ethyl-6,6-dimethyl-11-oxo-8-(1H-pyrazol-4-yl)-6,11-dihydro-5H-benzo[b]carbazole-3-carbonitrile], the “Percent viability … wt” value in series [2] was 0%. In series [4], the “Percent viability … G1202R” value stood at 1%.
For the compound `CCc1cc2c(cc1-c1cc[nH]n1)C(C)(C)c1[nH]c3cc(C#N)ccc3c1C2=O` [Compound 9, 9-ethyl-6,6-dimethyl-11-oxo-8-(1H-pyrazol-3-yl)-6,11-dihydro-5H-benzo[b]carbazole-3-carbonitrile], the midpoint of inhibition in series [1], the IC50, lay at 1.15 nM. Also, in series [2], the “Percent viability … wt” value stood at 1%. Besides, in series [4], the “Percent viability … G1202R” value came out at 1%.
On to `CCc1cc2c(cc1-c1ccoc1)C(C)(C)c1[nH]c3cc(C#N)ccc3c1C2=O` [Compound 11, 9-ethyl-8-(furan-3-yl)-6,6-dimethyl-11-oxo-6,11-dihydro-5H-benzo[b]carbazole-3-carbonitrile], for which the “Percent viability … wt” value in series [2] is given as 6%. For the same compound, the “Percent viability … G1202R” value in series [4] is given as 8%.
In the same order, the values of `CCc1cc2c(cc1-c1cccs1)C(C)(C)c1[nH]c3cc(C#N)ccc3c1C2=O` [Compound 12, 9-ethyl-6,6-dimethyl-11-oxo-8-(thiophen-2-yl)-6,11-dihydro-5H-benzo[b]carbazole-3-carbonitrile] are 12% and 10%.
In turn, `CCc1cc2c(cc1-c1ccncc1)C(C)(C)c1[nH]c3cc(C#N)ccc3c1C2=O` [Compound 14] yielded an IC50 in series [1] of 2.61 nM. Besides, the “Percent viability … wt” value in series [2] is 2%. The “Percent viability … G1202R” value in series [4] is 5%.
As for `CCc1cc2c(cc1-c1cccnc1)C(C)(C)c1[nH]c3cc(C#N)ccc3c1C2=O` [Compound 15, 9-ethyl-6,6-dimethyl-11-oxo-8-(pyridin-3-yl)-6,11-dihydro-5H-benzo[b]carbazole-3-carbonitrile], the “Percent viability … wt” value in series [2] stood at 1%. Moreover, the “Percent viability … G1202R” value in series [4] was 3%.
Regarding `CCc1cc2c(cc1N1CCNCC1)C(C)(C)c1[nH]c3cc(C#N)ccc3c1C2=O` [Compound 18, 9-ethyl-6,6-dimethyl-11-oxo-8-(piperazin-1-yl)-6,11-dihydro-5H-benzo[b]carbazole-3-carbonitrile], the “Percent viability … wt” value in series [2] was 1%. In addition, the “Percent viability … G1202R” value in series [4] is reported as 7%.
As to `CCc1cc2c(cc1N1CCOCC1)C(C)(C)c1[nH]c3cc(C#N)ccc3c1C2=O` [Compound 20, 9-ethyl-6,6-dimethyl-8-morpholino-11-oxo-6,11-dihydro-5H-benzo[b]carbazole-3-carbonitrile], the “Percent viability … wt” value in series [2] worked out at 2%. Further, the “Percent viability … G1202R” value in series [4] came to 4%.
With `CCc1cc2c(cc1C#N)C(C)(C)c1[nH]c3cc(C#N)ccc3c1C2=O` [Compound 21, 9-ethyl-6,6-dimethyl-11-oxo-6,11-dihydro-5H-benzo[b]carbazole-3,8-dicarbonitrile], the “Percent viability … wt” value in series [2] stood at 19%. Besides, the “Percent viability … G1202R” value in series [4] was 28%.
As for `CCc1cc2c(cc1[C@@H](O)CO)C(C)(C)c1[nH]c3cc(C#N)ccc3c1C2=O` [Compound 22, (R)-8-(1,2-dihydroxyethyl)-9-ethyl-6,6-dimethyl-11-oxo-6,11-dihydro-5H-benzo[b]carbazole-3-carbonitrile], the “Percent viability … wt” value in series [2] stood at 4%. In addition, the “Percent viability … G1202R” value in series [4] is reported as 39%.
Consider `CCc1cc2c(cc1[C@H](O)CO)C(C)(C)c1[nH]c3cc(C#N)ccc3c1C2=O` [Compound 23, (S)-8-(1,2-dihydroxyethyl)-9-ethyl-6,6-dimethyl-11-oxo-6,11-dihydro-5H-benzo[b]carbazole-3-carbonitrile], for which the “Percent viability … wt” value in series [2] turned out to be 4%.
`CCc1cc2c(cc1C(=O)O)C(C)(C)c1[nH]c3cc(C#N)ccc3c1C2=O` [Compound 24, 3-cyano-9-ethyl-6,6-dimethyl-11-oxo-6,11-dihydro-5H-benzo[b]carbazole-8-carboxylic acid]: in series [2], the “Percent viability … wt” value was 57%. For the same compound, the “Percent viability … G1202R” value in series [4] was determined as 39%.
Taken in the same sequence, the figures for `CCc1cc2c(cc1/C=C/CN1CCOCC1)C(C)(C)c1[nH]c3cc(C#N)ccc3c1C2=O` [Compound 25, (E)-9-ethyl-6,6-dimethyl-8-(3-morpholinoprop-1-en-1-yl)-11-oxo-6,11-dihydro-5H-benzo[b]carbazole-3-carbonitrile] were 93% and 103%.
As to `CCc1cc2c(cc1-c1ccc(O)nc1)C(C)(C)c1[nH]c3cc(C#N)ccc3c1C2=O` [Compound 26, 9-ethyl-8-(6-hydroxypyridin-3-yl)-6,6-dimethyl-11-oxo-6,11-dihydro-5H-benzo[b]carbazole-3-carbonitrile], the “Percent viability … wt” value in series [2] is 4%. Further, in series [4], the “Percent viability … G1202R” value amounted to 12%.
For `CCc1cc2c(cc1-c1ccc(N)nc1)C(C)(C)c1[nH]c3cc(C#N)ccc3c1C2=O` [Compound 27, 8-(6-aminopyridin-3-yl)-9-ethyl-6,6-dimethyl-11-oxo-6,11-dihydro-5H-benzo[b]carbazole-3-carbonitrile], the “Percent viability … wt” value in series [2] was found to be 12%. The “Percent viability … G1202R” value in series [4] was determined as 42%.
Taken in the same sequence, the figures for `CCc1cc2c(cc1N(C)CCN(C)C)C(C)(C)c1[nH]c3cc(C#N)ccc3c1C2=O` [Compound 28, 8-((2 (dimethylamino)ethyl)(methyl)amino)-9-ethyl-6,6-dimethyl-11-oxo-6,11-dihydro-5H-benzo[b]carbazole-3-carbonitrile] were 2% and 7%.
Taken in the same sequence, the figures for `CCc1cc2c(cc1-c1cnn(CC(=O)NC)c1)C(C)(C)c1[nH]c3cc(C#N)ccc3c1C2=O` [Compound 33, 2-(4-(3-cyano-9-ethyl-6,6-dimethyl-11-oxo-6,11-dihydro-5H-benzo[b]carbazol-8-yl)-1H-pyrazol-1-yl)-N-methylacetamide] were 0% and 0%.
Taken in the same sequence, the figures for `CCc1cc2c(cc1-c1cnn(C(C)(C)C(=O)N(C)C)c1)C(C)(C)c1[nH]c3cc(C#N)ccc3c1C2=O` [Compound 35, 2-(4-(3-cyano-9-ethyl-6,6-dimethyl-11-oxo-6,11-dihydro-5H-benzo[b]carbazol-8-yl)-1H-pyrazol-1-yl)-N,N,2-trimethylpropanamide] were 0% and 0%.
`CCc1cc2c(cc1-c1ccc(S(=O)(=O)F)cc1)C(C)(C)c1[nH]c3cc(C#N)ccc3c1C2=O` [Compound 38, 4-(3-cyano-9-ethyl-6,6-dimethyl-11-oxo-6,11-dihydro-5H-benzo[b]carbazol-8-yl)benzenesulfonyl fluoride]: in series [1], the IC50 was found to be 41 nM.
